The numbers were not newly measured in patent publication US20170119792A1, “METHODS AND COMPOSITIONS FOR DERMATOLOGICAL USE COMPRISING CLOBETASOL AND HALOBETASOL AND BIOPOLYMERS” (APEX LABORATORIES PRIVATE LIMITED, priority 2015, published 2017), which cites them from elsewhere.

Molecules are shown by their SMILES.

With `CCC(=O)O[C@]1(C(=O)CCl)[C@@H](C)C[C@H]2[C@@H]3CCC4=CC(=O)C=C[C@]4(C)[C@@]3(F)[C@@H](O)C[C@@]21C` [Clobetasol propionate, (11β, 16β)-21-chloro-9-fluoro-11-hydroxy-16-methyl-17-(1-oxopropoxy)-pregna-1,4-diene-3, 20-dione], the “solubility in water” value is given as “insoluble in water”.
As for `CCC(=O)O[C@]1(C(=O)CCl)[C@@H](C)C[C@H]2[C@@H]3C[C@H](F)C4=CC(=O)C=C[C@]4(C)[C@@]3(F)[C@@H](O)C[C@@]21C` [Halobetasol propionate, 21-chloro-6α, 9-difluoro-11β, 17-dihydroxy-16β-methylpregna-1,4-diene-3, 20-dione17-propionate], the “solubility in water” value is recorded as “insoluble in water”.
